Reference: patent US20230241257A1, “BIOTIN-MODIFIED DIMER AND USE THEREOF” (THE UNIVERSITY OF TOKYO, priority 2020, published 2023)

Tests used:
[1] = system: human stomach cancer cells (MKN-45); assay: Experiment 6: pharmacokinetics of Cupid-scFv antibody (48 h before)+^211At-psyche-BR in MKN-45 cancer-bearing mouse models; format: in vivo, mice (BALB/cSlc nu/nu)
Protocol: The present experiment used human stomach cancer cells (MKN-45) expressing carcinoembryonic antigen (CEA). 9-week-old male immunodeficient mice (BALB/cSlc nu/nu) were used. MKN-45 cells (1×10^7/0.1 ml) were transplanted into the mice's subcutis on the right shoulder dorsal side to produce cancer-bearing mouse models. The mice were divided into four groups when the tumor volume became a predetermined size (on Day 12 after the transplantation), and the Cupid-scFv antibody was administered 100 μmol/0.1 ml via the caudal vein of each mouse. Forty-eight hours after administration of the Cupid-scFv antibody, […] (about 0.25 MBq/100 ml) was administered via the caudal vein of each mouse. One minute, 1 hour, 6 hours, and 24 hours after administration of the ^211At-psyche-BR, the mice were euthanized by collecting whole blood from the heart of each mouse under isoflurane anesthesia, and tumor tissues and normal tissues/organs were then excised. Normal tissues/organs: skin (lower right limb), muscle (right gastrocnemius muscle), heart, lung, spleen, pancreas, white fat (upper portion of right side testis), testis (both sides), stomach, stomach contents, small intestine (not including contents), large intestine (not including contents), liver, brown fat (interscapular), submandibular gland, thyroid gland (together with trachea), bone (right femur), cerebrum, eyeballs (both sides), bladder, and urine; the remaining residues were divided into three equal parts, and the three equal parts were defined to be residue-1, residue-2, and residue-3. After that, the weights of blood, plasma, urine, tumor, and normal tissues/organs were measured, and the radioactivity thereof was then measured using a γ counter. The amounts of the ^211At-psyche-BR (radioactivity) accumulated in the blood, plasma, urine, tumor, and normal tissues/organs were calculated. That is to say, the rates (% ID/g) of the ^211At-psyche-BR accumulated per unit weight (g) of the blood, plasma, urine, tumor, and normal tissues/organs, in the administered ^211At-psyche-BR were shown. Regarding accumulation of the ^211At-psyche-BR in the thyroid gland, since the weight of the thyroid gland could not be precisely measured, it was shown that the rate (% ID) of the ^211At-psyche-BR accumulated in the thyroid gland in the administered ^211At-psyche-BR.

[2] = system: human stomach cancer cells (MKN-45); assay: Experiment 7: pharmacokinetics of ^211At-psyche-BR in the absence of Cupid-scFv antibody in MKN-45 cancer-bearing mouse models; format: in vivo, mice (BALB/cSlc nu/nu); details: no Cupid-scFv antibody
Protocol: The present experiment used human stomach cancer cells (MKN-45) expressing carcinoembryonic antigen (CEA). 9-week-old male immunodeficient mice (BALB/cSlc nu/nu) were used. MKN-45 cells (1×10^7/0.1 ml) were transplanted into the mice's subcutis on the right shoulder dorsal side to produce cancer-bearing mouse models. The mice were divided into four groups at the time the tumor volume became a predetermined size (on Day 19 after the transplantation), and ^211At-psyche-BR was administered via the caudal vein of each mouse. One minute, 1 hour, 6 hours, and 24 hours after administration of the ^211At-psyche-BR, the mice were euthanized by collecting whole blood from the heart of each mouse under isoflurane anesthesia, and tumor tissues and normal tissues/organs were then excised. Normal tissues/organs: muscle (right gastrocnemius muscle), heart, lung, spleen, pancreas, testis (both sides), stomach, stomach contents, small intestine (not including contents), large intestine (not including contents), liver, kidney, submandibular gland, thyroid gland (together with trachea), bone (right femur), and cerebrum. After that, the weights of blood, plasma, tumor, and normal tissues/organs were measured, and the radioactivity thereof was then measured using a γ counter. The amounts of the ^211At-psyche-BR (radioactivity) accumulated in the blood, plasma, urine, tumor, and normal tissues/organs were calculated. That is to say, the rates (% ID/g) of the ^211At-psyche-BR accumulated per unit weight (g) of the blood, plasma, urine, tumor, and normal tissues/organs, in the administered ^211At-psyche-BR were shown. Regarding accumulation of the ^211At-psyche-BR in the thyroid gland, since the weight of the thyroid gland could not be precisely measured, it was shown that the rate (% ID) of the ^211At-psyche-BR accumulated in the thyroid gland in the administered ^211At-psyche-BR.

N=C1N[C@H]2[C@H](CS[C@H]2CCCCNC(=O)CCCCCC(=O)Nc2cc(NC(=O)CCCCCC(=O)NCCCC[C@@H]3SC[C@@H]4NC(=N)N[C@@H]43)cc(C(=O)NCCOCCOCCNC(=O)c3cccc([211At])c3)c2)N1 [^211At-psyche-BR]
Accumulation in the blood ([1]; after 1 minute): 26.4±2.7 % ID/g
Accumulation in the kidney ([1]; after 1 minute): 81.7±11.8 % ID/g
Accumulation in the liver ([1]; after 1 minute): 31.5±4.3 % ID/g
Accumulation in the lung ([1]; after 1 minute): 9.5±0.4 % ID/g
Accumulation in the spleen ([1]; after 1 minute): 3.4±0.2 % ID/g
Accumulation in the tumor ([1]; after 1 minute): 0.5±0.0 % ID/g
tumor-to-blood ratio ([1]; after 1 minute): 0.02±0.00
tumor-to-muscle ratio ([1]; after 1 minute): 1.30±0.06
Accumulation in the blood ([1]; after 1 hour): 30.6±3.2 % ID/g
Accumulation in the kidney ([1]; after 1 hour): 54.5±4.0 % ID/g
Accumulation in the liver ([1]; after 1 hour): 19.8±1.3 % ID/g
Accumulation in the lung ([1]; after 1 hour): 12.7±0.6 % ID/g
Accumulation in the spleen ([1]; after 1 hour): 6.8±0.3 % ID/g
Accumulation in the tumor ([1]; after 1 hour): 3.2±0.5 % ID/g
tumor-to-blood ratio ([1]; after 1 hour): 0.10±0.01
tumor-to-muscle ratio ([1]; after 1 hour): 5.13±0.67
Accumulation in the blood ([1]; after 6 hours): 22.7±2.7 % ID/g
Accumulation in the kidney ([1]; after 6 hours): 15.0±2.3 % ID/g
Accumulation in the liver ([1]; after 6 hours): 18.7±2.7 % ID/g
Accumulation in the lung ([1]; after 6 hours): 7.5±3.3 % ID/g
Accumulation in the spleen ([1]; after 6 hours): 9.7±1.0 % ID/g
Accumulation in the tumor ([1]; after 6 hours): 9.3±1.4 % ID/g
tumor-to-blood ratio ([1]; after 6 hours): 0.42±0.11
tumor-to-muscle ratio ([1]; after 6 hours): 11.42±1.05
Accumulation in the thyroid gland ([1]; after 24 h): 0.19±0.03 % ID
Accumulation in the blood ([1]; after 24 hours): 1.6±1.0 % ID/g
Accumulation in the kidney ([1]; after 24 hours): 5.6±1.0%
Accumulation in the liver ([1]; after 24 hours): 8.9±1.7%
Accumulation in the lung ([1]; after 24 hours): 2.9±0.3%
Accumulation in the spleen ([1]; after 24 hours): 4.6±1.6%
Accumulation in the tumor ([1]; after 24 hours): 7.4±2.3%
administered amount excreted (blood) ([1]; after 24 hours): about 98%
tumor-to-blood ratio ([1]; after 24 hours): 5.39±1.56
tumor-to-muscle ratio ([1]; after 24 hours): 27.98±2.34

N=C1N[C@H]2[C@H](CS[C@H]2CCCCC(=O)NCCCCCC(=O)Nc2cc(NC(=O)CCCCCNC(=O)CCCC[C@@H]3SC[C@@H]4NC(=N)N[C@@H]43)cc(C(=O)NCCOCCOCCNC(=O)c3cccc([211At])c3)c2)N1 [^211At-psyche-B]
Accumulation in the blood ([2]; after 1 minute): 13.5±1.1 % ID/g
Accumulation in the kidney ([2]; after 1 minute): 72.7±5.6 % ID/g
Accumulation in the liver ([2]; after 1 minute): 51.1±5.9 % ID/g
Accumulation in the tumor ([2]; after 1 minute): 0.3±0.04 % ID/g
Accumulation in the blood ([2]; after 1 hour): 2.1±0.2 % ID/g
Accumulation in the kidney ([2]; after 1 hour): 77.9±2.1 % ID/g
Accumulation in the liver ([2]; after 1 hour): 30.8±3.3 % ID/g
Accumulation in the tumor ([2]; after 1 hour): 0.4±0.02 % ID/g
Accumulation in the blood ([2]; after 6 hours): 1.0±0.2 % ID/g
Accumulation in the kidney ([2]; after 6 hours): 32.1±8.2 % ID/g
Accumulation in the liver ([2]; after 6 hours): 19.6±0.5 % ID/g
Accumulation in the tumor ([2]; after 6 hours): 0.8±0.09 % ID/g
Accumulation in the thyroid gland ([2]; after 6 hours of administration): 0.29±0.05 % ID
Accumulation in the blood ([2]; after 24 hours): 0.2±0.04 % ID/g
Accumulation in the kidney ([2]; after 24 hours): 3.0±0.1%
Accumulation in the liver ([2]; after 24 hours): 5.0±0.2%
Accumulation in the tumor ([2]; after 24 hours): 0.4±0.02%
